The assay concerns B16 cells. The assay can be described thus: Macrophage-mediated antitumor cytotoxicity (3H-TdR incorporation). The class given is cell-based, murine. Particulars: added to macrophages before supernatant; NMA 0.5 mM, catalase 500 U/ml.

Experimental: Macrophages (˜1×10^5) were incubated in 50% supernatants from Stat3β-transfected (S-Stat3β) or GFP-vector transfected (S-GFP) B16 cells for 6 h. The supernatants were replaced by normal complete medium and wild-type B16 cells (1×10^4) were added.
Macrophage-mediated antitumor cytotoxicity. Antitumor cytotoxic activity of macrophages against B16 cells was determined by inhibition of DNA synthesis. Briefly, peritoneal macrophages (1×10^5) were incubated in 50% supernatants derived from either wild type, pIRES-Stat3β or pIRES-GFP transfected, or UV-irradiated B16 cells for 6 h. After replacing the supernatants with normal complete medium, B16 cells (1.0×10^4/well) were added and co-cultured for 48 h with and without peritoneal macrophages. For some experiments, NOS inhibitor, N-monomethyl-L-arginine (NMA) (0.5 mM, Sigma) or H202 quencher, catalase (500 U/ml, Boehringer Mannheim, Indianapolis, Ind.) were added to macrophages before adding supernatant from Stat3β-transfected B16 cells. The co-cultured cells were pulsed with 3H-thymidine (3H-TdR) (0.25 μCi/well) during the last 6 h of incubation to estimate DNA synthesis. 3H-TdR incorporation was determined using a liquid scintillation β-counter (Pharmacia Wallac, Finland).
3H-thymidine incorporation to estimate DNA synthesis and cell proliferation was performed.

Turning to catalase, the “effect on macrophage-mediated cytostasis induced by Stat3β supernatant” value is “does not influence macrophage cytotoxic effects against B16 cells”.
